How the values were obtained:
[1] = target: T1, human recombinant A1AR (Homo sapiens, UniProt P30542); conditions: reference compound ANR 94, reference printed at end of table row; cited from earlier work
T1 construct: expressed in transfected cells; membrane preparation
T1 sequence (P30542 1-326): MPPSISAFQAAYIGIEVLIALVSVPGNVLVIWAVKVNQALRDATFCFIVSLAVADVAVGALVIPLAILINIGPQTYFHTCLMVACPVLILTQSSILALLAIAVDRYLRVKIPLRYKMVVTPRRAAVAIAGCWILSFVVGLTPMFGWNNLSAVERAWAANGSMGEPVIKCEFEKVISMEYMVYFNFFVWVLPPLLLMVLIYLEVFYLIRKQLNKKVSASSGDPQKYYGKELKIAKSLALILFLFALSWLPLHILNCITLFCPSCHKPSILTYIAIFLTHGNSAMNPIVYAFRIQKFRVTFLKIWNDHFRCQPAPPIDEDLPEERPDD

[2] = system: murine model of PD; design: method as in PMID 19951715; conditions: cited from earlier work
[3] = system: catalepsy induced by haloperidol; design: method as in PMID 35184706; conditions: in vivo model of Parkinson's disease; cited from earlier work
[4] = target: T2, human recombinant A3AR (Homo sapiens, UniProt P0DMS8); conditions: reference compound ANR 94; cited from earlier work
T2 construct: expressed in transfected cells; membrane preparation
T2 sequence (P0DMS8 1-318): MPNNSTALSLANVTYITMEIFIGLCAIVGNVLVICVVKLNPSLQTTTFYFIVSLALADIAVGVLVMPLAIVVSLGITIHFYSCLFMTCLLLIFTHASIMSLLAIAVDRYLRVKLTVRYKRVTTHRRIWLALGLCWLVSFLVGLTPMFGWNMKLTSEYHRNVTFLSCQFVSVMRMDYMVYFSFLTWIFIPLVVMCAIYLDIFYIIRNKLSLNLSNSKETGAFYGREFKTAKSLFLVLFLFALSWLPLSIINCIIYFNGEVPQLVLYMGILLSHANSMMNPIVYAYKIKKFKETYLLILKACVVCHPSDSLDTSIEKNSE

[5] = system: BV-2 murine microglial cells; assay: RT-PCR expression of inflammatory mediators in LPS-activated BV-2 cells; format: cell-based; conditions: 10 nM for 24 h, then 100 ng/mL LPS 24 h
Protocol: BV-2 cells were treated with 13 or ANR 94 (10 nM) and activated with 100 ng/mL LPS for 24 h. Total RNA was isolated, and proinflammatory cytokine and enzyme expressions were measured using RT-PCR (Figure 5).
Cell Cultures and Treatments: BV-2 murine microglial cells (a gift from Prof. Elisabetta Blasi of the University of Modena and Reggio Emilia, Modena, Italy) were maintained at 37 °C and 5% CO2 in a humidified incubator and grown in DMEM supplemented with 10% (v/v) low-endotoxin fetal bovine serum (Euroclone—Milan, Italy), 2 mM L-glutamine, 50 U/mL penicillin, and 50 μg/mL streptomycin (Sigma-Aldrich–Merck, Milan, Italy). Cells were seeded at 50,000 cells/mL in 96-well tissue culture plates for the viability assay, in 6-well tissue culture plates for the Griess assay and RT-PCR assay. BV-2 cells were treated for 24 h with ANR 94 or 13 at different concentrations and then exposed to LPS (100 ng/mL; Sigma-Aldrich–Merck) for a further 24 h.
Real-Time Polymerase Chain Reaction (PCR): At the end of the experiments, total RNA was extracted by BV-2 cells using RNeasy Mini Kit (QIAGEN GmbH, Hilden, Germany). RNA concentraion and quality were measured on a NanoVue Spectrophotometer (GE Healthcare, Milano, Italy). iScript cDNA Synthesis Kit (Bio-Rad, Hercules, CA, USA) was used to synthesize cDNA starting from the extracted RNA, following the supplier’s instructions. PCR was performed by adding 2.5 μL (12.5 ng) of cDNA, 5 μL SsoAdvanced Universal SYBR Green Supermix (Bio-Rad), and 0.5 μL (500 nM) of each primer (Table 2) to a PCR tube. cDNA amplification was started at 95 °C for 30 s to activate the polymerase, followed by 40 cycles of 5 s at 95 °C and 30 s at 60 °C. Normalized expression levels were calculated relative to the control cells according to the 2^−ΔΔCT method.

[6] = target: T3, A2BAR (Homo sapiens, UniProt P29275); conditions: reference compound ANR 94, reference printed at end of table row; cited from earlier work
T3 construct: expressed in transfected cells
T3 sequence (P29275 1-332): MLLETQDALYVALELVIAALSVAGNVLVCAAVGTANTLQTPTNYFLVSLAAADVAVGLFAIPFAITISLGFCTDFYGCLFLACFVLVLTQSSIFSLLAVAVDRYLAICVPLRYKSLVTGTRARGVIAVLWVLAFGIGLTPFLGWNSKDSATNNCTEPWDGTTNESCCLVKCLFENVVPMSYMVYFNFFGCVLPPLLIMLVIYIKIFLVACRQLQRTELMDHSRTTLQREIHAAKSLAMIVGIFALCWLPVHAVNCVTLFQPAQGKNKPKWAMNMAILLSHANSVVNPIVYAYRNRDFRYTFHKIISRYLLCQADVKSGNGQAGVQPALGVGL

[7] = target: T4, human recombinant A2AAR (Homo sapiens, UniProt P29274); assay: Radioligand binding at human A2AAR ([3H]NECA displacement, CHO cell membranes); conditions: ratio of Ki values
T4 construct: expressed in transfected cells; membrane preparation
T4 sequence (P29274 whole entry): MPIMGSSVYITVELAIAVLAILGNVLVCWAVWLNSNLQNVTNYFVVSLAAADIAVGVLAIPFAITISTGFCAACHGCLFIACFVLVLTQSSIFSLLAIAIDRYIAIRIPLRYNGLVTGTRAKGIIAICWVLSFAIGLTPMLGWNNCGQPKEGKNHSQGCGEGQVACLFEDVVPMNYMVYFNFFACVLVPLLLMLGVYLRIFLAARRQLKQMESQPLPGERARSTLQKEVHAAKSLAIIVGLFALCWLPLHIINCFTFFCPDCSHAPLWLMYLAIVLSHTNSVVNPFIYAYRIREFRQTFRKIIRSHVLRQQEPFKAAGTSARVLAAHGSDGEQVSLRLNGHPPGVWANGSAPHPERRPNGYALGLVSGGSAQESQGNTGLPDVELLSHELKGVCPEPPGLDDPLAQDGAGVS
Protocol: Most of the compounds were also evaluated at A2BARs in a functional study using the GloSensor cAMP assay. […] In the case of A2BARs, Ki-values were calculated from IC50-values determined by the inhibition of NECA-stimulated adenylyl cyclase activity.
Preparation of membranes: Cell membranes for binding assays were prepared mechanically detaching the cells from the petri and suspending them in a cold hypotonic buffer (5 mM Tris/HCl, 2 mM EDTA, pH 7.4). The cell suspension was homogenized (Ultra-Turrax, 2 × 15 s at maximum speed) and the homogenate centrifuged for 10 min (4 °C) to 1000× g. […] The amount of the protein suspension was determined according to the […] using the BCA Protein Assay Kit (Pierce), frozen in liquid nitrogen, and stored at −80 °C.
Binding assays: The dissociation constants of the radioligand (KD) were calculated through saturation assays, while the dissociation constants of the compounds under study (Ki) were determined by competition experiments. All binding data were calculated by nonlinear regression curves using the software GraphPad Prism 5 (GraphPad Software, San Diego, CA, USA). The increasing concentrations of the radioligand saturation binding ([^3H]-CCPA for the A1 receptor subtype, [^3H]-NECA for the A2A receptor subtype, and [^3H]-HEMADO for the A3 receptor) subtype were incubated in a total volume of 250 μL containing 0.2 U/mL of Ado deaminase (ADA) and 12 micrograms of membrane proteins in the specific buffer. In competition experiments for the A1 receptor subtype, each compound was added at increasing concentrations, to the well containing 1 nM of [^3H]-CCPA, to a final volume of 200 μL. The samples were left to incubate for 3 h at room temperature, filtered in a filter 96-well plate (UniFilter GF/C, Perkin-Elmer Life and Analytical Science, Boston, MA) using the FilterMate Cell Harvester (Perkin-Elmer), and washed 3 times with cold distilled water. After drying the filter plate at 40 °C for 30′, they 20 μL of scintillating liquid (Microscint-20, Perkin-Elmer) was added to each well, and then the radioactivity was quantized with the MicroBeta2 Plate Counter (Perkin-Elmer). The conditions for binding experiments at A2A and A3 receptor subtypes were essentially the same as for the A1AR using [^3H]-NECA (N-ethylcarboxyamideAdo) at a concentration of 10 nM and [^3H]-HEMADO (2-(1-hexyne)-N^6-methylAdo) at a concentration of 1 nM as radioligands, respectively. The samples were incubated with 12 micrograms of protein for 3 h at room temperature and filtered as described above.
The non-specific binding was determined in the presence of 1 mM theophylline for the A1AR, or 100 µM R-PIA (N^6-(1-methyl-2-phenylethyl)Ado) for the A2A and A3 receptors.

[8] = system: rats sensitized to L-DOPA; design: method as in PMID 35184706; conditions: cited from earlier work
[9] = system: neuronal injury model induced by 6-hydroxydopamine; design: method as in PMID 35184706; conditions: cited from earlier work
[10] = system: tremor induced by tacrine; design: method as in PMID 35184706; conditions: cited from earlier work

CCOc1nc2c(N)ncnc2n1CC [ANR 94, 9-ethyl-8-ethoxyadenine]
Ki [1]: 2.4 µM | microglia activation [2]: ability to reduce microglia activation | effect on catalepsy induced by haloperidol [3]: reversed the catalepsy induced by haloperidol | Ki [4]: 21 µM | COX-2 mRNA expression vs LPS [5]: only able to significantly reduce the expression of IL-1β | IL-1β mRNA expression vs LPS [5]: significantly reduce the expression of IL-1β | IL-6 mRNA expression vs LPS [5]: only able to significantly reduce the expression of IL-1β | iNOS mRNA expression vs LPS [5]: only able to significantly reduce the expression of IL-1β | Ki [6]: > 30 µM | selectivity A1/A2A [7]: 52 | selectivity A2B/A2A [7]: > 652 | selectivity A3/A2A [7]: 457 | contralateral turning behavior [8]: induced contralateral turning behavior | motor deficit [9]: reducing the motor deficit | intensity of the tremor induced by tacrine [10]: good efficacy in lowering the intensity of the tremor
